These results are taken from article PMC12744750 (Plant Communications, 2025).

A word on the Kd: it is the free concentration of one partner at which half of the binding sites on the other are occupied at equilibrium, for simple one-to-one binding.

Entries after “also recorded” stand apart in the source; their conditions may differ.

In assay [1] the test system is Arabidopsis pls mutant seedlings (primary root length). In words: Hydroponic peptide feeding: rescue of short primary root of pls mutant. In kind it is in vivo, Arabidopsis thaliana. The following applies: for rescue of root growth of pls seedlings: 50 nM peptide, n = 25 (Figure 2C). On the procedure:
(A) Amino acid sequence of the PLS peptide from Arabidopsis thaliana with the Camelina sativa PLS sequence and the synthetic truncations N1, N2, C1, and C2 indicated by horizontal lines. Two cysteine residues are highlighted in bold. (B) Effect of the synthetic Arabidopsis PLS full-length peptide, A. thaliana PLS(FL), and the Camelina PLS peptide (C. sativa PLS) on Arabidopsis primary root length. Wild-type (C24; blue bars) and pls mutant seedlings (orange bars) were grown hydroponically in the presence (100 nM) or absence of peptide for 10 days. ∗∗∗P < 0.05, t-test between C24 and pls. Error bars show ±1 standard error of the mean, n = 20. (C) Effect of synthetic full-length and truncated peptides on primary root length of wild-type (blue bars) and pls mutant (orange bars) Arabidopsis. Seedlings were grown hydroponically in the presence of 50 nM peptide for 10 days. C1, C-terminal 14 amino acids; C2, C-terminal 24 amino acids; N1, N-terminal 22 amino acids; N2, N-terminal 9 amino acids; full-length PLS, 36 amino acids. Error bars show ±1 standard error of the mean, n = 25. ∗∗∗P < 0.05, t-test between C24 and pls.
proPLS::PLS:GFP comprises a 1.5-kb PLS promoter sequence ([Casson et al., 2002]) fused to the PLS open reading frame in pMDC107 (obtained from Prof. P.J. Hussey, Durham University) as a C-terminal GFP translational fusion. The PLS ORF with its 1.5-kb promoter was amplified from the TOPO 2.1 vector, which contained the PLS gene sequence with promoter ([Casson et al., 2002]); the primers used for cloning are listed in supplemental Table 9. pls mutant plants were transformed using the method of [Clough and Bent (1998)]. proPLS::GFP plants were generated using the 1.5-kb PLS promoter ([Casson et al., 2002]) fused to GFP in a wild-type background. p35S::GFP seedlings were obtained from Dr. Piers Hemsley, Durham University. Seedlings of Arabidopsis thaliana ecotype C24 or Col-0, pls mutants, and transgenic PLS overexpressers, all from lab stocks, were grown on solid sterile half-strength (2.2 g/l) Murashige and Skoog medium (Sigma-Aldrich) containing 10 g/l sucrose (half-strength [½] MS10 medium) solidified with 2.5 g/l Phytagel (Sigma-Aldrich) in 90-mm Petri dishes (Sarstedt, Leicester, UK) at 21°C under a 16-h photoperiod as described previously ([Casson et al., 2002]; [Chilley et al., 2006]). N. benthamiana plants (lab stocks) were grown in a controlled environment (21°C, 16-h photoperiod) for transient expression studies in leaf tissue. For hydroponic feeding studies, Arabidopsis seedlings were cultured in liquid ½ MS10 medium (1 ml/well) in sterile 24-well plates (Sarstedt), essentially as described in [Matsuzaki et al. (2010]). For hormone and peptide assays, one seedling was grown in each well at 21°C under a 16-h photoperiod. For peptide feeding experiments, purified freeze-dried peptide was dissolved in DMSO to create a 500-μM stock solution. The peptide stock solution was added to liquid ½ MS10 medium containing 0.1% DMSO to obtain a final peptide concentration of 50 or 100 nM (or 10, 25, 50, and 100 nM for dose-dependent assays). For copper treatments, 1 mM CuSO4 solution was filter sterilized and added to autoclaved liquid ½ MS10 medium to obtain final CuSO4 concentrations of 0, 5, 10, 15, 20, 25, 30, 35, 40, 45, and 50 μM. Seedlings were scanned to create a digital image, and root lengths of the seedlings were measured using ImageJ. Statistical analysis was performed using Real Statistics Resource Pack software (release 3.8, www.real-statistics.com) in Excel (Microsoft) using data from at least 10 independently grown seedlings for root growth analysis; specific numbers are defined for each experiment.

Assay [2] is described as follows: Anaerobic Cu(I) titration in competition with bicinchoninic acid (BCA). In kind it is binding. Particulars: synthetic peptide; mutant 40 μM, BCA 93.3 μM, mean ± SD, n = 3 (supplemental Figure 10). On the procedure: Freeze-dried synthetic PLS peptide (Cambridge Research Biochemicals) was dissolved in DMSO. An aliquot was added to aqueous buffer (10 mM HEPES [pH 7], 20 mM NaCl, 80 mM KCl), and absorbance was recorded at 280 nm. PLS concentration was estimated from the absorbance and the ProtParam estimated extinction coefficient of 2980 M^−1 cm^−1. Concurrently, a sample was submitted for quantitative amino acid analysis (Abingdon Health Laboratory Services). From this analysis, a conversion factor of 2.27 was generated, which was applied to the concentrations determined by A280 nm.
A fusion of PLS to MBP was created using the NEBExpress MBP Fusion and Purification System. Two complementary oligonucleotide primers encoding PLS (optimized for expression in E. coli) were annealed and inserted into the pMal-c5x plasmid at the XmnI and SalI insertion sites. The three mutants MBP:PLS(C6S), MBP:PLS(C17S), and MBP:PLS(C6S/C17S) were created by site-directed mutagenesis (QuikChange II, Agilent). E. coli NEB Express containing the pMal plasmid with the correct MBP:PLS mutant was used to overexpress each protein. Harvested cells were resuspended in 20 mM Tris–HCl (pH 7.4), 200 mM NaCl, and 1 mM EDTA, then frozen at −20°C overnight. Cells were defrosted in cold H2O, sonicated, purified by ammonium sulfate precipitation (where MBP-PLS precipitates >60% saturation), separated on an MBP-Trap column (GE Healthcare), and eluted using buffer containing 10 mM maltose. MBP:PLS-containing fractions were pooled and concentrated using a centrifugal concentrator (Corning, Spin-X UF 30 kDa) and buffer exchanged by desalting column into a metal-free buffer of 20 mM HEPES (pH 7.0) and 50 mM NaCl in an anaerobic chamber (Belle Technology). Mutants containing thiols were quantified using Ellman’s assay, and MBP:PLS(C6S/C17S), which lacks all thiols, was quantified using the Bradford assay alone. Samples were also analyzed for metal content by ICP–MS to ensure >95% apo-protein.
All Cu(I) titration experiments were carried out in an anaerobic chamber (Belle Technology) using metal-free CHELEX-treated, degassed buffers. For titration experiments with Cu(I), aqueous CuSO4 stock was quantified in advance by ICP–MS and diluted to working concentrations. The reductant NH2OH was included at a final concentration of 1 mM to maintain Cu(I) in its reduced state. Proteins were diluted in buffer to the final concentration specified in each titration in air-tight quartz cuvettes (Helma), and after addition of probe to the concentration specified, titrated with CuSO4. After each addition, solutions were thoroughly mixed and absorbance spectra recorded using a Lambda 35 UV/Vis spectrophotometer (PerkinElmer). Titration isotherm data were fitted using simulated affinity curves with DynaFit ([Kuzmič, 2009]).

The subject of a further assay is pls mutant. Particulars: cited from earlier work. An excerpt: Transgenic complementation of the mutant by the PLS gene (AT4G39403), which encodes a 36-amino-acid peptide, suppresses the mutant phenotype ([ ... || The pls mutant is rescued by the supply of silver ions ([Casson et al., 2002]), and silver is likely delivered to the ethylene receptor via RAN1 ([Binder et al., 2010]); these findings argue against a mechanism in which PLS acts downstream of RAN1 to metalate ETR1 in the ER lumen. It is also unlikely that PLS removes Cu(I) from the receptor, as this would inactivate the receptor and lead to enhanced ethylene signaling in the presence of PLS, which is the opposite of what would be expected from the pls mutant phenotype. We therefore favor a model (Figure 6) in which PLS binds ETR1 as part of th ...

For a further assay, the system named is pPLS::GUS. Description: pPLS::GUS expression in root tips after hormone treatment. It counts as in vivo, Arabidopsis. Particulars: 10 μM 2,4-D, root tips. The source says:
Figure S15. The link between auxi n and et hyl ene si gnal l i ng ef f ect s on PLS transcription, and downstream ef f ect s on et hyl ene responses.
(A) Ant agoni sm between auxi n and et hyl ene on PLS expressi on.
Auxin posit ively regulates PLS gene transcription, whi l e ACC (ethylene pr ecur sor ) […]
Lef t upper panel: pPLS::GUS […]
expr ession in the Arabidopsis root tip under standard gr owt h conditions. Lef t lower panel: pPLS::PLS:GFP expr ession in the Arabidopsis root tip under standard gr owt h conditions.
Ri ght panel: pPLS::GUS expr ession in root tips treated wi t h 10 μM 2,4-D, showing ect opic […]
10 μM 2,4-D plus 10 μm ACC, showing the ant agonism of the inductive eff ect of 2,4-D on PLS::GUS expr ession. Images ar e representative of 10 independently gr own roots. […]

Assay [3] concerns the target T1, full-length ETR1, recombinant, purified and fluorescently labeled (Arabidopsis, UniProt P49333 1-738, fluorescent label (dye and site not stated)).
T1 chain: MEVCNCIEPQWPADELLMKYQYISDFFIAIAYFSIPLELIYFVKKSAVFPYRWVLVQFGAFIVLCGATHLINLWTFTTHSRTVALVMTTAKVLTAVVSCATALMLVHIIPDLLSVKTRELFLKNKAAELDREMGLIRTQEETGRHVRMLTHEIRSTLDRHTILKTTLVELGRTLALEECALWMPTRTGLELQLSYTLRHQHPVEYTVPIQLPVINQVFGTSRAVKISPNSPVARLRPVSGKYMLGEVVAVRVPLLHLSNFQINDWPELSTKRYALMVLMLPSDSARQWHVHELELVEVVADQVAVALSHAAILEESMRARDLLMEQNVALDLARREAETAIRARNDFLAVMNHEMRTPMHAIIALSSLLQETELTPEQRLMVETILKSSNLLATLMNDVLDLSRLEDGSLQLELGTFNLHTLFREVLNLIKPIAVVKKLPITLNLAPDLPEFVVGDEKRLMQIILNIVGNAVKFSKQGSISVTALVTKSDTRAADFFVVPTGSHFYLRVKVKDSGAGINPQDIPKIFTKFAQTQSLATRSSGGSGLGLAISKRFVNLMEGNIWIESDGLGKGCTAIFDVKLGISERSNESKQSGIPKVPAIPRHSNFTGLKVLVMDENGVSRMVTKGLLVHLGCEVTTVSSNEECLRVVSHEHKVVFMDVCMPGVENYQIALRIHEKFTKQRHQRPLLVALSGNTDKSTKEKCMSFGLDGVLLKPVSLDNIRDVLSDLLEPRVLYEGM
Description: MST.

As to “C1: C-terminal 14 amino acids of Arabidopsis PLS (YLLVAKLFKLFKIH; UniProt Q8LLV8 23-36, looked up, fragment)”, the “rescue of root growth of pls seedlings” value in assay [1] (hydroponic, 10 days) is on record as “unable to rescue the mutant”.

On to “C2: C-terminal 24 amino acids of Arabidopsis PLS (SISPCYISISYLLVAKLFKLFKIH; UniProt Q8LLV8 13-36, looked up, fragment)”, for which, in assay [1] (hydroponic, 10 days), the “rescue of root growth of pls seedlings” value is “unable to rescue the mutant”. Same read-out and setting: the result for “N2: N-terminal 9 amino acids of Arabidopsis PLS (MKPRLCFNF; UniProt Q8LLV8 1-9, looked up, fragment)” reads “unable to rescue the mutant”. Take “N1: N-terminal 22 amino acids of Arabidopsis PLS (MKPRLCFNFRRRSISPCYISIS; UniProt Q8LLV8 1-22, looked up, fragment)”: the “rescue of root growth of pls seedlings” value in assay [1] (hydroponic, 10 days) is recorded as “rescued root growth”. Moreover, in assay [1] (50 nM, n = 25), the “difference in rescue effects of PLS(FL) and PLS(N1), t-test P” value is on record as more than 0.1. Also, in assay [1] (50 nM, n = 25, t-test), the “difference in rescue effects of PLS(FL) and PLS(N1)” value is “did not differ significantly”. Moreover, the “rescue of short primary root length of pls mutant” value in assay [1] (hydroponic, 10 days, 100 nM (Figure 2B) or 50 nM (Figure 2C)) was “able to rescue the short primary root length”.

For the molecule “PLS(FL C6S, C17S): mutated Arabidopsis full-length peptide in which both cysteines were replaced with serines (MKPRLSFNFRRRSISPSYISISYLLVAKLFKLFKIH; full-length; UniProt Q8LLV8 1-36, looked up, variant C6S C17S)”, the “withholding of Cu(I) from BCA” value in assay [2] is “does not”. Moreover, the “rescue of pls mutant by double-Cys mutant peptide” value in assay [1] (100 nM, hydroponic, 10 days (Figure 5A)) was “non-functional; also recorded: failing to rescue the short primary root phenotype of the pls mutant”. Consider silver ions, for which, in the assay on pls mutant (pharmacological inhibition of ethylene signaling, ref Chilley et al., 2006), the “rescue of pls mutant phenotype” value is “rescued”. The “rescue of pls mutant” value in the assay on pls mutant (supply of silver ions, ref Casson et al., 2002) is on record as “rescued”. Take `O=C(O)COc1ccc(Cl)cc1Cl` [2,4-D]: in the assay on pPLS::GUS, the “pPLS::GUS expression” value is given as “throughout the root”.

In the case of MKPRLCFNFRRRSISPCYISISYLLVAKLFKLFKIH [synthetic full-length POLARIS (PLS) peptide, PLS(FL)], in assay [3], the Kd was 1900 nM.
